Our source for the IC50 values is patent publication US20220265590A1, “DIBENZYLAMINES AS AMINO ACID TRANSPORT INHIBITORS” (VANDERBILT UNIVERSITY, priority 2019, published 2022).

Molecules are shown by their SMILES. pIC50: −log10 of the molar value.

The test system of assay [1] is HEK293 cells. The experiment in a line: Glutamine uptake inhibition assay (3H-labeled glutamine accumulation in live cells). Type of assay: cell-based. To be noted: Homo sapiens, 15 minutes incubation with 3H-GLN (500 nM), assay buffer pH 6, triplicate, read-out: ^3H Glut IC50. Here is the method:
Twenty-four hours prior to assay, HEK293 cells were seeded at a density of 12K cells per well into a 96 well plate (coated with poly-D-Lysine). […] Accumulation of 3H-labeled glutamine (3H-GLN) in live cells was assessed by incubation for 15 minutes with vehicle or test reagent at the concentrations indicated. The final concentration of 3H-GLN was 500 nM. Each compound was evaluated in triplicate. For the assay, cells were rinsed with assay buffer (pH 6) three times (100 uL). Compounds were transferred in a single-add protocol and incubated for 15 minutes with 3H-GLN. After the uptake period, the supernatant was removed and cell monolayers were washed 3× with 100 μl assay buffer. Subsequently, cells were lysed with 50 μl 1M NaOH and 150 μl scintillation liquid was added to each well. The plate was incubated at room temperature for 20 minutes, transferred to 4° C. storage overnight, and read the next day using a top-count plate reader (Perkin Elmer).

For assay [2], the system named is HEK293 cells. The experiment in a line: Viability (Cell Titer, CellTiter-Glo). Type of assay: cell-based. To be noted: Homo sapiens, 48 h incubation, 96-well plate. Here is the method:
Viability (Cell Titer) was evaluated using a commercially available chemiluminescent reagents (CellTiter-Glo, Promega Corp. G7572) in 96-well plate format according to the manufacturers protocol. Cells were exposed to either vehicle or test agent at the indicated concentrations and incubated for a period of 48 h. Subsequently, CellTiter-Glo reagent was added and the plates were read using a plate reader (BioTek Synergy 4) with standard settings.
(In general: Cellular ATP, detected with luciferase, serves as a proxy for viable cell number.)

For the molecule `N[C@@H](CCN(Cc1ccccc1OCc1ccc(F)cc1)Cc1ccccc1Oc1ccccc1F)C(=O)O` [compound 8, (S)-2-amino-4-((2-((4-fluorobenzyl)oxy)benzyl)(2-(2-fluorophenoxy)benzyl)amino)butanoic acid], the pIC50 with HEK293 cells [1] is 3.93.
Turning to `N[C@@H](CCN(Cc1ccccc1OCc1ccccc1F)Cc1ccccc1Oc1ccccc1F)C(=O)O` [compound 7, (S)-2-amino-4-((2-((2-fluorobenzyl)oxy)benzyl)(2-(2-fluorophenoxy)benzyl)amino)butanoic acid], the pIC50 in the assay on HEK293 cells [2] is 4.73; with HEK293 cells [1], 4.03.
Turning to `COc1ccc(Oc2ccccc2CN(CC[C@H](N)C(=O)O)Cc2ccccc2OCc2ccc(Cl)cc2)cc1` [compound 14, (S)-2-amino-4-((2-((4-chlorobenzyl)oxy)benzyl)(2-(4-methoxyphenoxy)benzyl)amino)butanoic acid], the pIC50 in the assay with HEK293 cells [1] is 3.79.
With `COc1cccc(COc2ccccc2CN(CC[C@H](N)C(=O)O)Cc2ccccc2Oc2ccc(Cl)cc2)c1` [Cpd. No. 20, (S)-2-amino-4-((2-(4-chlorophenoxy)benzyl)(2-((3-methoxybenzyl)oxy)benzyl)amino) butanoic acid], the pIC50 with HEK293 cells [2] was 4.86; with HEK293 cells [1] it was 5.50.
In the case of `COc1ccc(Oc2ccccc2CN(CC[C@H](N)C(=O)O)Cc2ccccc2OCc2ccc(F)cc2)cc1` [compound 13, (S)-2-amino-4-((2-((4-fluorobenzyl)oxy)benzyl)(2-(4-methoxyphenoxy)benzyl)amino)butanoic acid], the pIC50 with HEK293 cells [1] was 4.54.
In the case of `Cc1cccc(COc2ccccc2CN(CC[C@H](N)C(=O)O)Cc2ccccc2Oc2ccc(Cl)cc2)c1` [Cpd. No. 21, (S)-2-amino-4-((2-(4-chlorophenoxy)benzyl)(2-((3-methylbenzyl)oxy)benzyl)amino) butanoic acid], the pIC50 in the assay on HEK293 cells [2] is 4.54; with HEK293 cells [1], 4.60.
In the case of `N[C@@H](CCN(Cc1ccccc1OCc1ccc(F)cc1)Cc1ccccc1Oc1ccc(Cl)cc1)C(=O)O` [compound 15, (S)-2-amino-4-((2-(4-chlorophenoxy)benzyl)(2-((4-fluorobenzyl)oxy)benzyl)amino)butanoic acid], the pIC50 with HEK293 cells [1] was 4.50.
Regarding `N[C@@H](CCN(Cc1ccccc1OCc1ccc(Cl)cc1)Cc1ccccc1Oc1ccc(Cl)cc1)C(=O)O` [Cpd. No. 11, (S)-2-amino-4-((2-((4-chlorobenzyl)oxy)benzyl)(2-(4-chlorophenoxy)benzyl)amino)butanoic acid], the pIC50 in the assay with HEK293 cells [2] is 4.90; in the assay with HEK293 cells [1] it was > 4.00.
As for `N[C@@H](CCN(Cc1ccccc1OCc1ccccc1F)Cc1ccccc1Oc1ccc(Cl)cc1)C(=O)O` [compound 10, (S)-2-amino-4-((2-(4-chlorophenoxy)benzyl)(2-((2-fluorobenzyl)oxy)benzyl)amino)butanoic acid], in the assay on HEK293 cells [1], the pIC50 was 4.37.

What is called pIC50 is −log10 of the IC50, conventionally taken in molar units.
